In patent publication US7763657B2, “Compounds, isomer thereof, or pharmaceutically acceptable salts thereof as vanilloid receptor antagonist; and pharmaceutical compositions containing the same” (Amorepacific Corporation, priority 2005, dated 2010) one finds IC50 data, which are given here for 30 compounds.

Broadly, the IC50 is the concentration needed to halve the response being measured.

This assay deals with T1, vanilloid receptor (Rattus norvegicus, UniProt O35433).
T1 construct: DRG nerve cells from the primary culture of 2 days were equilibrated; endogenous in cells; host or cells: primary cultured dorsal root ganglion neurons of neonatal SD rats
T1 sequence (O35433 whole entry): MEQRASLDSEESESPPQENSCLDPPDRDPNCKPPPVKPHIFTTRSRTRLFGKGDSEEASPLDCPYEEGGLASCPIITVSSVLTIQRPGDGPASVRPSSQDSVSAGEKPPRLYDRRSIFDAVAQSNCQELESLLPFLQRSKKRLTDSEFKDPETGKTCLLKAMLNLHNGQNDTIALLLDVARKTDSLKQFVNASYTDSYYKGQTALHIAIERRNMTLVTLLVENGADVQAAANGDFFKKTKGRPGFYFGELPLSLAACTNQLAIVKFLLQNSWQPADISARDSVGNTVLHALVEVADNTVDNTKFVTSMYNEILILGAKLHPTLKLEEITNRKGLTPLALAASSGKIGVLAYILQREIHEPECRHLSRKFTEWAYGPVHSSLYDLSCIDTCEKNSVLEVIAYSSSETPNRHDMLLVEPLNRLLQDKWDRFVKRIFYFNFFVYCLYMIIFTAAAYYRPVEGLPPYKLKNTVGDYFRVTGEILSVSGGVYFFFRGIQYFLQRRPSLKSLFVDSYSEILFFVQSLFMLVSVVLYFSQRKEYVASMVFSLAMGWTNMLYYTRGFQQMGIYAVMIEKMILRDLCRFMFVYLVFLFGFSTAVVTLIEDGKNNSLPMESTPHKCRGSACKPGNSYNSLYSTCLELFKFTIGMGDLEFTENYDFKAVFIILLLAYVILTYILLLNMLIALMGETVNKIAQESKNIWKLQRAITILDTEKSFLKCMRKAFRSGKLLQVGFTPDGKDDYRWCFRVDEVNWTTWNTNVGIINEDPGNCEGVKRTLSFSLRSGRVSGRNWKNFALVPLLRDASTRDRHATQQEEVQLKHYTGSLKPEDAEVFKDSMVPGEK
Nature of the assay: 45Ca influx test (calcium uptake) in primary cultured DRG neurons, antagonism of capsaicin. It counts as cell-based. The settings on record: neonatal SD rat DRG nerve cells; capsaicin 0.5 μM; 45Ca 10 μCi/ml; 10 mins room temperature; read-out: Antagonist Calcium Uptake Test (IC50). Here is the method: 1) Separation of Spinal Dorsal Root Ganglia (DRG) in Newborn Rats and Primary Culture Thereof
Neonatal (2-3 day old or younger than 2-3 day old) SD rats were put in ice for 5 minutes to anesthetize and disinfected with 70% ethanol. […] The DRG were incubated sequentially at 37° C. for 30 min in 200 U/ml collagenase and 2.5 mg/ml trypsin, separately. The ganglia were washed twice with DME/F12 medium supplemented with 10% horse serum, triturated through a fire-polished Pasteur pipette, filtered through Nitex 80 membrane to obtain single cell suspension and the suspension was washed once more. This was subjected to centrifugation, then resuspended in cell culture medium at certain level of cell density. As the cell culture medium, DME/F12 medium supplemented with 10% horse serum was diluted with identical medium conditioned by C6 glioma cells 2 days on a confluent monolayer (1:1), and NGF (Nerve Growth Factor) was added to adjust 200 ng/ml as final concentration. After the cells were grown 2 days in medium where cytosine arabinoside (Ara-C, 100 μM) was added to kill dividing nonneuronal cells, medium was changed to one without Ara-C. The resuspended cells were plated at a density of 1500-2000 neurons/well onto Terasaki plates previously coated with 10 μg/ml poly-D-ornithine.
2) ^45Ca Influx Experiments
DRG nerve cells from the primary culture of 2 days were equilibrated by washing 4 times with HEPES (10 mM, pH 7.4)-buffered Ca^2+, Mg^2+-free HBSS (H—HBSS). The solution in each well was removed from the individual well. Medium containing the test compound plus capsaicin (final concentration 0.5 μM) and ^45Ca (final concentration 10 μCi/ml) in H—HBSS was added to each well and incubated at room temperature for 10 mins. Terasaki plates were washed five times with H—HBSS and dried at room temperature. To each well, 0.3% SDS (10 μl) was added to elute ^45Ca. After the addition of scintillation cocktail of into each well, the amount of ^45Ca influx into neuron was measured by counting radioactivity.

For the compound `C=Cc1cc(CNC(=O)NCc2ccc(C(C)(C)C)cc2)ccc1NS(C)(=O)=O` [Example 1, N-{4-[3-(4-t-butylbenzyl)ureidomethyl]-2-vinylphenyl}methanesulfonamide], the half-inhibitory concentration (IC50) stood at 160 nM. Take `C#Cc1cc(CNC(=O)NCc2ccc(C(C)(C)C)cc2)cc(F)c1NS(C)(=O)=O` [Example 3, N-{4-[3-(4-t-butylbenzyl)ureidomethyl]-2-ethynyl-6-fluorophenyl}methanesulfonamide]: the 50% inhibitory concentration (IC50) is 180 nM. Then `C=Cc1cc(CNC(=O)NCc2ccc(C(C)(C)C)cc2)c(Cl)cc1NS(C)(=O)=O` [Example 4, N-{4-[3-(4-t-butylbenzyl)ureidomethyl]-5-chloro-2-vinylphenyl}methanesulfonamide], with 170 nM; and `C#Cc1cc(CNC(=O)NCc2ccc(C(C)(C)C)cc2)c(Cl)cc1NS(C)(=O)=O` [Example 5, N-{4-[3-(4-t-butylbenzyl)ureidomethyl]-5-chloro-2-ethynylphenyl}methanesulfonamide], with 490 nM.

In the case of `C=Cc1cc([C@@H](C)NC(=O)NCc2ccc(C(C)(C)C)cc2)cc(F)c1NS(C)(=O)=O` [Example 7, (R)—N-(4-{1-[3-(4-tert-Butyl-benzyl)-ureido]-ethyl}-2-fluoro-6-vinyl-phenyl)-methanesulfonamide], the concentration for half-maximal inhibition (IC50) was determined as 39 nM. In the case of `C=Cc1cc(CNC(=O)NCc2ccc(C(C)(C)C)cc2)cc(C)c1NS(C)(=O)=O` [Example 8, N-{4-[3-(4-tert-Butyl-benzyl)-ureidomethyl]-2-methyl-6-vinyl-phenyl}-methanesulfonamide] it was 310 nM; in that of `C=Cc1cc(CNC(=O)NCc2ccc(C(C)(C)C)cc2)cc(Cl)c1NS(C)(=O)=O` [Example 9, N-{4-[3-(4-tert-Butyl-benzyl)-ureidomethyl]-2-chloro-6-vinyl-phenyl}-methanesulfonamide], 130 nM. Then `C=Cc1cc([C@@H](C)NC(=O)C#Cc2ccc(C(C)(C)C)cc2)ccc1NS(C)(=O)=O` [Example 11, 3-(4-t-butylphenyl)-N-[1-(R)-(4-methanesulfonylamino-3-vinylphenyl)ethyl]propiolicamide], with 79 nM. `C=Cc1cc(CNC(=O)C#Cc2ccc(C(C)(C)C)cc2)cc(F)c1NS(C)(=O)=O` [Example 12, 3-(4-tert-Butylphenyl)propynoic acid 3-fluoro-4-methanesulfonylamino-5-vinylbenzylamide]: the half-inhibitory concentration (IC50) was 87 nM. In the case of `C=Cc1cc([C@@H](C)NC(=O)C#Cc2ccc(C(C)(C)C)cc2)cc(F)c1NS(C)(=O)=O` [Example 13, 3-(4-tert-Butylphenyl)propynoic acid N-[1-(3-fluoro-4-methanesulfonylamino-5-vinylphenyl)ethyl]amide] it was 150 nM; in that of `C=Cc1cc(CNC(=O)/C=C/c2ccc(C(C)(C)C)cc2)cc(Cl)c1NS(C)(=O)=O` [Example 21, 3-(4-tert-Butylphenyl)-N-(3-chloro-4-methanesulfonylamino-5-vinylbenzyl)acrylamide], 160 nM. In the case of `C=Cc1cc(CNC(=O)/C=C/c2ccc(C(C)(C)C)cc2N2CCOCC2)cc(F)c1NS(C)(=O)=O` [Example 22, 3-(4-tert-Butyl-2-morpholin-4-yl-phenyl)-N-(3-fluoro-4-methanesulfonylamino-5-vinylbenzyl)acrylamide] it was 250 nM; in that of `C=Cc1cc(CNC(=O)/C=C/c2ccc(C(C)(C)C)cc2OCCOC)cc(F)c1NS(C)(=O)=O` [Example 23, 3-[4-tert-Butyl-2-(2-methoxy-ethoxy)-phenyl]-N-(3-fluoro-4-methanesulfonylamino-5-vinyl-benzyl)-acrylamide], 67 nM.

In the case of `C=Cc1cc(CNC(=O)/C=C/c2ccc(C(C)(C)C)cc2NCCOC)cc(F)c1NS(C)(=O)=O` [Example 27, 3-[4-tert-Butyl-2-(2-methoxyethylamino)phenyl]-N-(3-fluoro-4-methanesulfonylamino-5-vinylbenzyl)acrylamide], the half-maximal inhibitory concentration (IC50) was found to be 76 nM. In the case of `C=Cc1cc(CNC(=O)/C=C/c2ccc(C(C)(C)C)cc2OC)cc(F)c1NS(C)(=O)=O` [Example 28, 3-(4-tert-Butyl-2-methoxyphenyl)-N-(3-fluoro-4-methanesulfonylamino-5-vinyl-benzyl)acrylamide] it was 73 nM; in that of `C=CCOc1cc(C(C)(C)C)ccc1/C=C/C(=O)NCc1cc(F)c(NS(C)(=O)=O)c(C=C)c1` [Example 30, 3-(2-Allyloxy-4-tert-butylphenyl)-N-(3-fluoro-4-methanesulfonylamino-5-vinylbenzyl)acrylamide], 68 nM; in that of `C=Cc1cc(CNC(=O)/C=C/c2ccc(C(C)(C)C)cc2NCCC(C)C)cc(F)c1NS(C)(=O)=O` [Example 32, 3-[4-tert-butyl-2-(3-methylbutylamino)phenyl]-N-(3-fluoro-4-methanesulfonylamino-5-vinylbenzyl)acrylamide], 490 nM. For the compound `C=Cc1cc(CNC(=O)/C=C/c2ccc(C(C)(C)C)cc2NC(C)C)cc(F)c1NS(C)(=O)=O` [Example 34, 3-(4-tert-Butyl-2-isopropylaminophenyl)-N-(3-fluoro-4-methanesulfonylamino-5-vinylbenzyl)acrylamide], the concentration for half-maximal inhibition (IC50) was determined as 170 nM. Turning to `C=Cc1cc([C@@H](C)NC(=O)CCc2ccc(C(C)(C)C)cc2)cc(F)c1NS(C)(=O)=O` [Example 35, (R)-3-(4-tert-Butylphenyl)-N-[1-(3-fluoro-4-methanesulfonylamino-5-vinylphenyl)ethyl]propionamide], the IC50 was 33 nM.

As to `C=Cc1cc([C@@H](C)NC(=O)/C=C/c2ccc(C(C)(C)C)cc2)cc(F)c1NS(C)(=O)=O` [Example 36, (R)-3-(4-tert-Butylphenyl)-N-[1-(3-fluoro-4-methanesulfonylamino-5-vinylphenyl)ethyl]acrylamide], the IC50 stood at 54 nM. In the case of `C=Cc1cc(CNC(=O)/C(C)=C/c2ccc(C(C)(C)C)cc2)cc(F)c1NS(C)(=O)=O` [Example 37, 3-(4-tert-Butylphenyl)-N-(3-fluoro-4-methanesulfonylamino-5-vinylbenzyl)-2-methylacrylamide] it was 49 nM; in that of `C=Cc1cc(CNC(=O)/C(F)=C/c2ccc(C(C)(C)C)cc2)cc(F)c1NS(C)(=O)=O` [Example 38, 3-(4-tert-Butylphenyl)-2-fluoro-N-(3-fluoro-4-methanesulfonylamino-5-vinylbenzyl)acrylamide], 270 nM; in that of `C=Cc1cc(CNC(=O)/C=C/c2ccc(C(C)(C)C)cc2OC2CCOCC2)cc(F)c1NS(C)(=O)=O` [Example 40, 3-[4-tert-Butyl-2-(tetrahydropyran-4-yloxy)phenyl]-N-(3-fluoro-4-methanesulfonylamino-5-vinylbenzyl)acrylamide], 290 nM. On to `C=Cc1cc([C@@H](C)NC(=O)/C(C)=C/c2ccc(C(C)(C)C)cc2)ccc1NS(C)(=O)=O` [Example 42, (R)-3-(4-tert-Butylphenyl)-N-[1-(4-methanesulfonylamino-3-vinylphenyl)ethyl]-2-methylacrylamide], for which the 50% inhibitory concentration (IC50) amounted to 22 nM.

With `C=Cc1cc(CNC(=O)C(C)Cc2ccc(C(C)(C)C)cc2)cc(F)c1NS(C)(=O)=O` (stereo not drawn) [Example 43, 3-(4-tert-Butylphenyl)-N-(3-fluoro-4-methanesulfonylamino-5-vinylbenzyl)-2-methylpropionamide], the half-inhibitory concentration (IC50) turned out to be 67 nM. Take `C#Cc1cc(CNC(=O)CCc2ccc(C(C)(C)C)cc2)cc(F)c1NS(C)(=O)=O` [Example 47, 3-(4-tert-butyl-phenyl)-N-(3-ethynyl-5-fluoro-4-methanesulfonylamino-benzyl)-propionamide]: the IC50 is 170 nM. As for `C=Cc1cc([C@@H](C)NC(=O)Nc2ccc(C(C)(C)C)cc2)ccc1NS(C)(=O)=O` [Example 53, (R)—N-(4-{1-[3-(4-tert-Butylphenyl)ureido]ethyl}-2-vinylphenyl)methanesulfonamide], the half-maximal inhibitory concentration (IC50) stood at 99 nM. As to `C#Cc1cc([C@@H](C)NC(=O)Nc2ccc(C(C)(C)C)cc2)ccc1NS(C)(=O)=O` [Example 55, (R)—N-(4-{1-[3-(4-tert-Butylphenyl)ureido]ethyl}-2-ethynylphenyl)methanesulfonamide], the half-inhibitory concentration (IC50) came out at 170 nM. For the compound `C=Cc1cc(CNC(=O)Nc2ccc(C(C)(C)C)cc2)cc(F)c1NS(C)(=O)=O` [Example 57, N-{4-[3-(4-tert-Butylphenyl)ureidomethyl]-2-fluoro-6-vinylphenyl}methanesulfonamide], the half-inhibitory concentration (IC50) was found to be 500 nM. Turning to `C=Cc1cc([C@@H](C)NC(=O)Nc2ccc(C(C)(C)C)cc2)ccc1NS(=O)(=O)C=C` [Example 58, Ethenesulfonic Acid (4-{1-[3-(4-tert-butylphenyl)ureido]ethyl}-2-vinylphenyl)amide], the IC50 turned out to be 450 nM.
